Reference: patent US20090221603A1, “HETEROCYCLIC AMIDE DERIVATIVES AS CALCIUM CHANNEL BLOCKERS” (priority 2005, published 2009)
Like-named read-outs stand apart in the source and are kept apart here.

Target: T1, rat brain N-type calcium channel subunits (α1B+α2δ+β1b cDNA subunits) (Rattus norvegicus, UniProt Q02294)
T1 construct: expressed in transfected cells; host or cells: HEK 293 (stably, alternatively transiently, transfected)
Experiment: N-type calcium channel block, whole cell patch clamp in HEK 293 cells
Type: cell-based
Conditions: holding potential −80 mV to +10 mV
Procedure: A. Transformation of HEK Cells: • N-type calcium channel blocking activity was assayed in human embryonic kidney cells, HEK 293, stably transfected with the rat brain N-type calcium channel subunits (α1B+α2δ+β1b cDNA subunits). Alternatively, N-type calcium channels (α1B+α2δ+β1b cDNA subunits), L-type channels (α1C+α2δ+β1b cDNA subunits) and P/Q-type channels (α1A+α2δ+β1b cDNA subunits) were transiently expressed in HEK 293 cells. Briefly, cells were cultured in Dulbecco's modified eagle medium (DMEM) supplemented with 10% fetal bovine serum, 200 U/ml penicillin and 0.2 mg/ml streptomycin at 37° C. with 5% CO2. At 85% confluency cells were split with 0.25% trypsin/1 mM EDTA and plated at 10% confluency on glass coverslips. At 12 hours the medium was replaced and the cells transiently transfected using a standard calcium phosphate protocol and the appropriate calcium channel cDNA's. Fresh DMEM was supplied and the cells transferred to 28° C./5% CO2. Cells were incubated for 1 to 2 days prior to whole cell recording.
B. Measurement of Inhibition
Whole cell patch clamp experiments were performed using an Axopatch 200B amplifier (Axon Instruments, Burlingame, Calif.) linked to a personal computer equipped with pCLAMP software. The external and internal recording solutions contained, respectively, 5 mM BaCl2, 10 mM MgCl2, 10 mM HEPES, 40 mM TEACl, 10 mM glucose, 87.5 mM CsCl (pH 7.2) and 108 mM CsMS, 4 mM MgCl2, 9 mM EGTA, 9 mM HEPES (pH 7.2). Currents were typically elicited from a holding potential of −80 mV to +10 mV using Clampex software (Axon Instruments). Typically, currents were first elicited with low frequency stimulation (0.067 Hz) and allowed to stabilize prior to application of the compounds. The compounds were then applied during the low frequency pulse trains for two to three minutes to assess tonic block, and subsequently the pulse frequency was increased to 0.2 Hz to assess frequency dependent block. Data were analyzed using Clampfit (Axon Instruments) and SigmaPlot 4.0 (Jandel Scientific).

[1] = low frequency stimulation 0.067 Hz (tonic block), read-out: IC50 @ 0.067 Hz
[2] = pulse frequency 0.2 Hz (frequency dependent block), read-out: IC50 @ 0.2 Hz

T1 sequence (Q02294 whole entry): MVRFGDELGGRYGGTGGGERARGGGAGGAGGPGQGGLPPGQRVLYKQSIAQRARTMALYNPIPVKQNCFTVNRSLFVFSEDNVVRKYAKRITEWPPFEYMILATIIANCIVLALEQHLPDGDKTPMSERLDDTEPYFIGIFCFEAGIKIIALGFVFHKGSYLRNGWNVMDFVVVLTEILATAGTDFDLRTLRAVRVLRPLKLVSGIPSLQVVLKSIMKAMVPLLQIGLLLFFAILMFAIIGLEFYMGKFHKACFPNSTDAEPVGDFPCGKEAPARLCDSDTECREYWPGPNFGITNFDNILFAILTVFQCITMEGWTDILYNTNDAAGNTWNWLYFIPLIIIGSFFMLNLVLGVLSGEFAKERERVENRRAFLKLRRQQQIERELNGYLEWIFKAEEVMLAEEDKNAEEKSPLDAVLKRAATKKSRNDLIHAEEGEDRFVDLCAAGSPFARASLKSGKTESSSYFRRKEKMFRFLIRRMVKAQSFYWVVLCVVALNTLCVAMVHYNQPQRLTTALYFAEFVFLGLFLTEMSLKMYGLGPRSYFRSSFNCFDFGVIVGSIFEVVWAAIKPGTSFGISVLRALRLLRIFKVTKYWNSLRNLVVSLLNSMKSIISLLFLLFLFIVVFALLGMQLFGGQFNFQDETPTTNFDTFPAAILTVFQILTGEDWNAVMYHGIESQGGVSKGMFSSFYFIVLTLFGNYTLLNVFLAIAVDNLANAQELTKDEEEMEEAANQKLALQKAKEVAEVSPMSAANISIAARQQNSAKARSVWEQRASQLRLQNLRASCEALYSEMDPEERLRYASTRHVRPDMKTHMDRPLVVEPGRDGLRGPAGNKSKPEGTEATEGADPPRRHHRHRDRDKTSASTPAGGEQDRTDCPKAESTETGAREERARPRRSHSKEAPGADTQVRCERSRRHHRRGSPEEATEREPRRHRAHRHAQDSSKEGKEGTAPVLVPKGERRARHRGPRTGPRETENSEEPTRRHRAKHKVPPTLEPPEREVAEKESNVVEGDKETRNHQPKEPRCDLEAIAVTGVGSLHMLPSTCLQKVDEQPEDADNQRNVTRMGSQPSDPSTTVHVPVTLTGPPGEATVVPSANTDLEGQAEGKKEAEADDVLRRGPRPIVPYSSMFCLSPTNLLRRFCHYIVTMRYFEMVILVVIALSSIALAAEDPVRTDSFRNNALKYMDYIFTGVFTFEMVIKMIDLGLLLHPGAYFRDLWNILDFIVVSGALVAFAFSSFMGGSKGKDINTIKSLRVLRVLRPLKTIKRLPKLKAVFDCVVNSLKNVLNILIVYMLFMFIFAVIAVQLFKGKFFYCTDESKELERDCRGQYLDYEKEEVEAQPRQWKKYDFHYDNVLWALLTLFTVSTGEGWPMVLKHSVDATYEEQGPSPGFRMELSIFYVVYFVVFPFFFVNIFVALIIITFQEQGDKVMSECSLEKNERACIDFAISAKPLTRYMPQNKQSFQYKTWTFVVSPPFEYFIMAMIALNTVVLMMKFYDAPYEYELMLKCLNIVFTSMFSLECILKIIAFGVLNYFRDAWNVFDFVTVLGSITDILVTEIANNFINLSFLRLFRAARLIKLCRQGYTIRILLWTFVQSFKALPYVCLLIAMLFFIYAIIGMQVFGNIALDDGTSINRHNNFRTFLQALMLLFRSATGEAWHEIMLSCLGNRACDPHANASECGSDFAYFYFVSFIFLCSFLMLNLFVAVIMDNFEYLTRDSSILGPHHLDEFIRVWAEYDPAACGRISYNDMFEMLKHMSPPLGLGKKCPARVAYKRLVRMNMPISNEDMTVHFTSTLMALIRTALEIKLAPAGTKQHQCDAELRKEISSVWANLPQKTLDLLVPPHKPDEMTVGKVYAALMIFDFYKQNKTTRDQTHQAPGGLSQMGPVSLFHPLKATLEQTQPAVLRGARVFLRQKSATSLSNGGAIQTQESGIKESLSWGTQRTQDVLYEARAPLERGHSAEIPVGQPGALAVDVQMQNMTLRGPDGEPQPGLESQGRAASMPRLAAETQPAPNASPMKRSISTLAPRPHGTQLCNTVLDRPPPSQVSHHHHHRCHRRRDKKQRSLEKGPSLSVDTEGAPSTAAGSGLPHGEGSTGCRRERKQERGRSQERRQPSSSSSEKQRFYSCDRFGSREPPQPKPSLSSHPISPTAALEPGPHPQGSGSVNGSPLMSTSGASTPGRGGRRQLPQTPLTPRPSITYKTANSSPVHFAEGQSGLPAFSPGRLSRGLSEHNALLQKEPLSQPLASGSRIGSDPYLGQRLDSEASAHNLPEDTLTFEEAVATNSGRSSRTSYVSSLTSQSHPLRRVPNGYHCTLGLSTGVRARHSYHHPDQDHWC
T1 sequence (P54290 25-944 partner limits assumed): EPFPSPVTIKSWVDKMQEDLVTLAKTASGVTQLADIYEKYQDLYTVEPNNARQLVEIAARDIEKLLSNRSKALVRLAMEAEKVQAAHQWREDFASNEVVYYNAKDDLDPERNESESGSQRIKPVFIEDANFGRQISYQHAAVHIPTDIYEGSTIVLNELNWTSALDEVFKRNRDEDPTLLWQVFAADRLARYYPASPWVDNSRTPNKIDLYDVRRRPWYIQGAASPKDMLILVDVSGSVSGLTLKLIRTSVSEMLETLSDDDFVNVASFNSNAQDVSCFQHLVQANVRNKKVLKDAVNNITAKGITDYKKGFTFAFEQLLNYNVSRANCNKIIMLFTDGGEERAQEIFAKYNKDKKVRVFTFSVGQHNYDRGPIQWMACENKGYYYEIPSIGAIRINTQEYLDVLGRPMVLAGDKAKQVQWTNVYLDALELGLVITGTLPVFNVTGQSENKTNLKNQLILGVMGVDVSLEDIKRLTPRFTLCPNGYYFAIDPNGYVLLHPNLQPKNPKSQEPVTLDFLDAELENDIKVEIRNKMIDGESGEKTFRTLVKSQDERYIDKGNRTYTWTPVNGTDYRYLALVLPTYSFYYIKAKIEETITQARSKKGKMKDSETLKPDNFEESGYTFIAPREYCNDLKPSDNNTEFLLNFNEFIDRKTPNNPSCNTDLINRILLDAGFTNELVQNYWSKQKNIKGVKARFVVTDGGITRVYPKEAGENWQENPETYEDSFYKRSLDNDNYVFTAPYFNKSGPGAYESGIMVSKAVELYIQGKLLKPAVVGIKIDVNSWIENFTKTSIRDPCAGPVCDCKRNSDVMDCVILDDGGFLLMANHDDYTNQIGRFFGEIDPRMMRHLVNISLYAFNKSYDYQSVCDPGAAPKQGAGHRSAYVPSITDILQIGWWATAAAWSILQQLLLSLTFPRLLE
T1 sequence (P54290 945-1091 partner limits assumed): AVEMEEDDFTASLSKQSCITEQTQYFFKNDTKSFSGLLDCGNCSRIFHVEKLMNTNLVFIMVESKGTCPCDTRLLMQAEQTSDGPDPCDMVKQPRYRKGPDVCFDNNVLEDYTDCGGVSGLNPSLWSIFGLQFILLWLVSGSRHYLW
T1 sequence (P54283 whole entry partner): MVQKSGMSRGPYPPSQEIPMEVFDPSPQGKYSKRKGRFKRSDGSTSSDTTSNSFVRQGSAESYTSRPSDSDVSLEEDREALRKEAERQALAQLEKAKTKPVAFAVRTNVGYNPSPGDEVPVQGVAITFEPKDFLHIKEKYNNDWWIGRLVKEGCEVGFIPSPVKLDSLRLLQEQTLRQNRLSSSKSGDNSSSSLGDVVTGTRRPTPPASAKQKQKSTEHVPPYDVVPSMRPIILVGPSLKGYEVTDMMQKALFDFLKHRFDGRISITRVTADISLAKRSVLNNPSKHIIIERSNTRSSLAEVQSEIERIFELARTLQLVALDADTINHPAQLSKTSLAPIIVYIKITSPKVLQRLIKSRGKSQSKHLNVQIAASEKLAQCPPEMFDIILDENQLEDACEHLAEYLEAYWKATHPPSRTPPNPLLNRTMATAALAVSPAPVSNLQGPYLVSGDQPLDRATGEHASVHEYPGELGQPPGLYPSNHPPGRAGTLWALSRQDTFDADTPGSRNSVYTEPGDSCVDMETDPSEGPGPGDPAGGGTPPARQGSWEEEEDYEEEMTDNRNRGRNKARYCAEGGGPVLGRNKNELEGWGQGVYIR

IC50 [1] | IC50 [2] | SMILES
> 4670 nM | > 2940 nM | CN(CC(=O)N1CCN(C(c2ccccc2)c2ccccc2Cl)CC1)C(c1ccccc1)c1ccccc1 (stereo not shown) [Compound 5, 2-benzhydryl(methyl)amino-1-(4-((2-chlorophenyl)(phenyl)methyl)piperazin-1-yl)ethanone]
> 11800 nM | 7920 nM | CN1CCC(C(=O)N2CCN(C(=O)CN(C)C(c3ccccc3)c3ccccc3)CC2)CC1 [Compound 11, 2-benzhydryl(methyl)amino-1-(4-(1-methylpiperidine-4-carbonyl)piperazin-1-yl)ethanone]
8300 nM | 1300 nM | O=C(COC(c1ccccc1)c1ccccc1)N1CCN(CC2CCOCC2)CC1 [Compound 35, 2-(benzhydryloxy)-1-(4-((tetrahydro-2H-pyran-4-yl)methyl)piperazin-1-yl)ethanone]
1240 nM | 840 nM | CN(CC(=O)N1CCN(C(c2ccccc2)c2cccc(Cl)c2)CC1)C(c1ccccc1)c1ccccc1 (stereo not shown) [Compound 4, 2-benzhydryl(methyl)amino-1-(4-((3-chlorophenyl)(phenyl)methyl)piperazin-1-yl)ethanone]
4300 nM | 800 nM | O=C(CNc1ccccc1)N1CCN(C(c2ccccc2)c2ccccc2)CC1 [Compound 16]
4000 nM | 2500 nM | CN1CCC(CN2CCN(C(=O)CNC(c3ccccc3)c3ccccc3)CC2)CC1 [Compound 9]
1460 nM | 670 nM | CN(CC(=O)N1CCN(C(c2ccccc2)c2cccc(C(F)(F)F)c2)CC1)C(c1ccccc1)c1ccccc1 (stereo not shown) [Compound 7]
> 4970 nM | > 2640 nM | CN1CCC(C(=O)N2CCN(C(=O)CNC(c3ccccc3)c3ccccc3)CC2)CC1 [Compound 10, 2-benzhydrylamino-1-(4-(1-methylpiperidine-4-carbonyl)piperazin-1-yl)ethanone]
330 nM | 210 nM | COCC1CN(C(=O)COC(c2ccccc2)c2ccccc2)CCN1C(c1ccccc1)c1ccccc1 (stereo not shown) [Compound 54, 2-(benzhydryloxy)-1-(4-benzhydryl-3-methoxymethylpiperazin-1-yl)ethanone]
550 nM | 440 nM | CN1CCC(C(c2ccccc2)N2CCN(C(=O)CN(C)C(c3ccccc3)c3ccccc3)CC2)CC1 (stereo not shown) [Compound 14, 2-benzhydryl(methyl)amino-1-(4-((1-methylpiperidin-4-yl)(phenyl)methyl)piperazin-1-yl)ethanone]
1290 nM | 1030 nM | O=C(CNc1cccc(Cl)c1)N1CCN(C(c2ccccc2)c2ccccc2)CC1 [Compound 18, 1-(4-benzhydrylpiperazin-1-yl)-2-(3-chlorophenylamino)ethanone]
2400 nM | 980 nM | O=C(CNc1cc(Cl)cc(Cl)c1)N1CCN(C(c2ccccc2)c2ccccc2)CC1 [Compound 22, 1-(4-benzhydrylpiperazin-1-yl)-2-(3,5-dichlorophenylamino)ethanone]
9530 nM | 4910 nM | O=C(CNC(c1ccccc1)c1ccccc1)N1CCN(CC2CCOCC2)CC1 [Compound 38, 2-(benzhydrylamino)-1-(4-((tetrahydro-2H-pyran-4-yl)methyl)piperazin-1-yl)ethanone]
1400 nM | 700 nM | O=C(CNc1cc(F)cc(F)c1)N1CCN(C(c2ccccc2)c2ccccc2)CC1 [Compound 21, 1-(4-benzhydrylpiperazin-1-yl)-2-(3,5-difluorophenylamino)ethanone]
7400 nM | 2070 nM | CN1CCC(CN2CCN(C(=O)CN(C)C(c3ccccc3)c3ccccc3)CC2)CC1 [Compound 12]
> 7600 nM | > 4600 nM | O=C(CNc1ccc(Cl)cc1)N1CCN(C(c2ccccc2)c2ccccc2)CC1 [Compound 17, 1-(4-benzhydrylpiperazin-1-yl)-2-(4-chlorophenylamino)ethanone]
> 4800 nM | > 3200 nM | CN1CCC(CN2CCN(C(=O)COC(c3ccccc3)c3ccccc3)CC2)CC1 [Compound 41, 2-(benzhydryloxy)-1-(4-((1-methylpiperidin-4-yl)methyl)piperazin-1-yl)ethanone]
1000 nM | 640 nM | CC1CN(CC2CCOCC2)CC(C)N1C(=O)COC(c1ccccc1)c1ccccc1 (stereo not shown) [Compound 32, 2-(benzhydryloxy)-1-(2,6-dimethyl-4-((tetrahydro-2H-pyran-4-yl)methyl)piperazin-1-yl)ethanone]
1200 nM | 740 nM | Cc1cc(CN2CCN(C(=O)COC(c3ccccc3)c3ccccc3)CC2)cc(Cl)n1 [Compound 40, 2-(benzhydryloxy)-1-(4-((2-chloro-6-methylpyridin-4-yl)methyl)piperazin-1-yl)ethanone]
2450 nM | 850 nM | CN(CC(=O)N1CCN(C(c2ccccc2)c2ccc(Cl)cc2)CC1)C(c1ccccc1)c1ccccc1 (stereo not shown) [Compound 3, 2-benzhydryl(methyl)amino-1-(4-((4-chlorophenyl)(phenyl)methyl)piperazin-1-yl)ethanone]
400 nM | 230 nM | O=C(COC(c1ccccc1)c1ccccc1)N1CCN(C(c2ccccc2)c2ccccc2)C(CO)C1 (stereo not shown) [Compound 50, 2-(benzhydryloxy)-1-(4-benzhydryl-3-hydroxymethylpiperazin-1-yl)ethanone]
2300 nM | 1500 nM | COc1cc(NCC(=O)N2CCN(C(c3ccccc3)c3ccccc3)CC2)cc(OC)c1OC [Compound 25, 1-(4-benzhydrylpiperazin-1-yl)-2-(3,4,5-trimethoxyphenylamino) ethanone]

SMILES | IC50 [1] | IC50 [2]
CN1CCC(CN2CCN(C(=O)C[S+]([O-])C(c3ccccc3)c3ccccc3)CC2)CC1 (stereo not shown) [Compound 43, 2-(benzhydrylsulfinyl)-1-(4-((1-methylpiperidin-4-yl)methyl)piperazin-1-yl)ethanone] | 4260 nM | 1340 nM
O=C(C[S+]([O-])C(c1ccccc1)c1ccccc1)N1CCN(C(c2ccccc2)c2ccccc2)C(CO)C1 (stereo not shown) [Compound 52, 1-(4-benzhydryl-3-hydroxymethylpiperazin-1-yl)-2-(benzhydrylsulfinyl)ethanone] | 1230 nM | 970 nM
CC1CN(CC2CCOCC2)CC(C)N1C(=O)C[S+]([O-])C(c1ccccc1)c1ccccc1 (stereo not shown) [Compound 34, 2-(benzhydrylsulfinyl)-1-(2,6-dimethyl-4-((tetrahydro-2H-pyran-4-yl)methyl)piperazin-1-yl)ethanone] | > 6600 nM | > 4700 nM
O=C(C[S+]([O-])C(c1ccccc1)c1ccccc1)N1CCN(C(c2ccccc2)c2ccccc2)CC1 (stereo not shown) [Compound 45, 1-(4-benzhydrylpiperazin-1-yl)-2-(benzhydrylsulfinyl)ethanone] | 290 nM | 200 nM
O=C(CSC(c1ccccc1)c1ccccc1)N1CCN(C(c2ccc(F)cc2)c2ccc(F)cc2)CC1 [Compound 47, 2-(benzhydrylthio)-1-(4-(bis(4-fluorophenyl)methyl)piperazin-1-yl)ethanone] | 4920 nM | 3230 nM
COCC1CN(C(=O)C[S+]([O-])C(c2ccccc2)c2ccccc2)CCN1C(c1ccccc1)c1ccccc1 (stereo not shown) [Compound 56, 1-(4-benzhydryl-3-methoxymethylpiperazin-1-yl)-2-(benzhydrylsulfinyl)ethanone] | 180 nM | 130 nM
O=C(CSC(c1ccccc1)c1ccccc1)N1CCN(C(c2ccccc2)c2ccccc2)CC1 [Compound 44, 1-(4-benzhydrylpiperazin-1-yl)-2-(benzhydrylthio)ethanone] | 600 nM | 270 nM
